Results on twelve molecules are retold here after patent publication US10975068B2, “6-aminopyridin-3-yl thiazoles as modulators of RORγT” (Janssen Pharmaceutica NV, priority 2016, dated 2021).

In experiment [1] the target is human RORγt ligand binding domain (RORγt LBD) (Homo sapiens (Human), UniProt P51449). Put plainly: RORγt ThermoFluor® assay (thermal shift binding). Conditions: for Kd: read-out: ThermoFluor® Assay, Kd. The method in brief: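 Binding was inferred from thermal stabilisation (ΔTm) of the E. coli-expressed RORγt LBD (0.065 mg/mL), monitored by 1,8-ANS (60 μM) emission at 500 nm during a 1 °C/min ramp. Buffer was Hepes 100 mM pH 7.0 with NaCl, GSH and Tween-20.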
A general note: In DSF a fluorescence change marks the thermal transition of the protein.

Experiment [2] has as its system IL-17 production by CD4 T cells. Put plainly: Human Th17 assay. The format is cell-based. Conditions: read-out: Human Th17 Assay, IC50. The text has this:
The human Th17 assay tests the effect of RORγt modulatory compounds on IL-17 production by CD4 T cells under conditions which favor Th17 differentiation. Total CD4^+ T cells were isolated from the peripheral blood mononuclear cells (PBMC) of healthy donors using a CD4^+ T cell isolation kit II, following the manufacturer's instructions (Miltenyi Biotec). Cells were resuspended in a medium of RPMI-1640 supplemented with 10% fetal bovine serum, penicillin, streptomycin, glutamate, and β-mercaptoethanol and were added to 96-well plates at 1.5×10^5 per 100 μL per well. 50 μL of compound at titrated concentrations in DMSO were added into each well at final DMSO concentration at 0.2%. Cells were incubated for 1 hour, then 50 μL of Th17 cell differentiation medium was added to each well. The final concentrations of antibodies and cytokines (R&D Systems) in differentiation medium were: 3×10^6/mL anti-CD3/CD28 beads (prepared using human T cell activation/expansion kit, Miltenyi Biotec), 10 μg/mL anti-IL4, 10 μg/mL anti-IFNγ, 10 ng/mL IL1β, 10 ng/mL IL23, 50 ng/mL IL6, 3 ng/mL TGFβ and 20 U/mL IL2. Cells were cultured at 37° C. and 5% CO2 for 3 days. Supernatants were collected and the accumulated IL-17 in culture was measured by using MULTI-SPOT® Cytokine Plate following manufacture's instruction (Meso Scale Discovery). The plate was read using Sector Imager 6000, and IL-17 concentration was extrapolated from the standard curve. The IC50s were determined by GraphPad.

For experiment [3], the target named is T1, full-length human RORγt (Homo sapiens (Human), UniProt P51449). Put plainly: RORγt (full-length human) reporter assay, Conditions A. Conditions: for IC50: read-out: RORγt (FL) Reporter Assay A, IC50; for inhibition at 6 µM: read-out: RORγt (FL) Reporter Assay A, % inhibition @ 6 μM; for RORγt (FL) Reporter Assay A, % inhibition (value marked **): marked **: footnote not shown. The format is cell-based. An excerpt: RORγt (Full-Length Human) Reporter Assay:
Cells used in this assay were transiently co-transfected with three different plasmids, one expressing the GAL4-DNA binding domain (DBD)-RORγt fusion protein under control of a CMV promoter (NH2-Gal4-DBD:RORC-COOH in pCMV-BD, Stratagene #211342), and two reporter plasmids—the firefly luciferase reporter under control of a GAL4 promoter (pFR-Luc 2×GAL4) and Renilla luciferase reporter under control of CMV promoter (pRL-CMV, Promega # E2261). The full-length coding sequence was used for human RORγt, i.e., nucleotides 142-1635 of human RORγt, transcript variant 2, NCBI Accession: NM_001001523.1 (SEQ ID NO:1). HEK293T cells were plated at 35000 per well in 96-well plate in medium of MEM with 8.6% FBS. After 18-22 hours incubation, the transfection was carried out by using a PEI solution with 170.5 ng total DNA/well (50 ng pCMV-BD-ROR plus 20 ng of pFR-Luc reporter and 0.5 ng of pRL-CMV reporter plus 100 ng Carrier DNA (Clontech #630440) for each well). 4-6 hours after transfection, cells were treated with compounds for overnight in the medium with final concentration of FBS 1.1% and DMSO 0.1%. After overnight (16 to 20 hours) incubation, media were removed and cells were lysed with 20 μL 1× Passive Lysis Buffer (Promega) for 10-15 minutes. Luminescence was measured using a BMG LUMIstar OPTIMA plate reader, after addition of 75 μL/well firefly luciferase buffer, followed by 75 μL/well Renilla luciferase buffer. To calculate the effect of compounds on RORγt activity, firefly values were normalized against values of DMSO only and values of reference compound at saturating concentration, then further normalized against Renilla signals. IC50s were generated by plotting final Renilla normalized data against compound concentration and percent inhibition was calculated against DMSO control.
For orientation: Reporter assays use an easily measured gene product as a stand-in for the process of interest.

The target in experiment [4] is T1, full-length human RORγt. Kind of experiment: RORγt (full-length human) reporter assay, Conditions B or C. Format: cell-based. Conditions: for IC50: read-out: RORγt (FL) Reporter Assay B or C, IC50. The method in brief:
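Readout is dual luciferase: firefly (GAL4-driven) normalized to DMSO-only and saturating-reference controls, then to CMV-Renilla. Full-length human RORγt fused to GAL4-DBD was transiently expressed in HEK293T; compound exposure ran overnight (16-20 h) starting 4-6 h after transfection, final FBS 1.3%, DMSO 0.1%.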

For experiment [5], the system named is mice. Conditions: cited from earlier work.
Experiment [6] has as its system obese diabetic mice. Conditions: cited from earlier work.

T1 sequence (P51449 other isoform, or with tags, fused parts or gaps): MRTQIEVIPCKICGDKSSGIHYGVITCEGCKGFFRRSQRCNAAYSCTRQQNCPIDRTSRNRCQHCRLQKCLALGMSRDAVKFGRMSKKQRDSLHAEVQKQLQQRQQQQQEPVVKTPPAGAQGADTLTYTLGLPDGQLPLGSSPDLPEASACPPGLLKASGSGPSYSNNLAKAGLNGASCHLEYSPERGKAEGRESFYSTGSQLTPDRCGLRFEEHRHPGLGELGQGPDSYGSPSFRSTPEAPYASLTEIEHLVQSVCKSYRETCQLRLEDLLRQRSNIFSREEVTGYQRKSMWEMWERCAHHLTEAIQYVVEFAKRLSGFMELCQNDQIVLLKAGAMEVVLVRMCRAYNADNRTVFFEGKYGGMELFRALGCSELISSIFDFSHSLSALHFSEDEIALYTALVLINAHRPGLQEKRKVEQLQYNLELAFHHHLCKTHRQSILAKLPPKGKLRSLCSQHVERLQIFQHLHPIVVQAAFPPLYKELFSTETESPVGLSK
Chain of human RORγt ligand binding domain (RORγt LBD) (P51449 other isoform, or with tags, fused parts or gaps): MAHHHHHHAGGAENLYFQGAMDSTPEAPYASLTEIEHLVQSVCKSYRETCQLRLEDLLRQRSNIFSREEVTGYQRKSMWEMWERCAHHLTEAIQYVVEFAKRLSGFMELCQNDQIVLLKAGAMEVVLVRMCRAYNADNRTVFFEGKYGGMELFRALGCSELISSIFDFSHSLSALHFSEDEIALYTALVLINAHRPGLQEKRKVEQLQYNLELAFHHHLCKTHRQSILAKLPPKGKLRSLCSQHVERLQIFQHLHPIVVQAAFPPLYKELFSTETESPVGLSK

The term Kd denotes the concentration at which binding is half-saturated. For orientation: IC50 means the midpoint of a concentration-inhibition curve. For orientation: inhibition means the change of the read-out against control, counted positive when it falls. With `C[C@H]1CCCN1C(=O)c1nc(C(=O)NCC(C)(C)O)sc1-c1cnc(NC2CCCCC2)cc1C(F)(F)F` [Example 19, (S)-5-(6-(Cyclohexylamino)-4-(trifluoromethyl)pyridin-3-yl)-N-(2-hydroxy-2-methylpropyl)-4-(2-methylpyrrolidine-1-carbonyl)thiazole-2-carboxamide], the Kd in experiment [1] was determined as 4.4 nM. Further, the IC50 in experiment [2] amounted to 40 nM. Further, in experiment [3] (Conditions A), the half-inhibitory concentration (IC50) came to 32 nM and the inhibition at 6 µM was 99%.
For `C[C@H]1CCCCN1C(=O)c1nc(C(=O)NCC(C)(C)O)sc1-c1cnc(NC2CCCCC2)cc1C1CC1` [Example 76, (S)-5-(6-(Cyclohexylamino)-4-cyclopropylpyridin-3-yl)-N-(2-hydroxy-2-methylpropyl)-4-(2-methylpiperidine-1-carbonyl)thiazole-2-carboxamide], the IC50 was 20 nM in experiment [2] and 3.8 nM in experiment [4] (Conditions B or C). The inhibition at 6 µM in experiment [4] (read-out: RORγt (FL) Reporter Assay B or C, % inhibition @ 6 μM, Conditions B or C, @ 6 μM) came to 108%.
Turning to `CC(C)(O)CNC(=O)c1nc(C(=O)N2CCC(F)CC2)c(-c2cnc(NC3CCCCC3)cc2C2CC2)s1` [Example 64, 5-(6-(Cyclohexylamino)-4-cyclopropylpyridin-3-yl)-4-(4-fluoropiperidine-1-carbonyl)-N-(2-hydroxy-2-methylpropyl)thiazole-2-carboxamide], the Kd in experiment [1] was determined as 17 nM. Further, the figures for the IC50 in experiment [2] and in experiment [3] (Conditions A) were 220 nM and 63 nM, respectively. For the same molecule, in experiment [3] (Conditions A), the inhibition at 6 µM was 96%.
As for `C[C@H]1CCCCN1C(=O)c1nc(C(=O)NC2CCS(=O)(=O)CC2)sc1-c1cnc(NC2CCCCC2)cc1C1CC1` [Example 75, (S)-5-(6-(Cyclohexylamino)-4-cyclopropylpyridin-3-yl)-N-(1,1-dioxidotetrahydro-2H-thiopyran-4-yl)-4-(2-methylpiperidine-1-carbonyl)thiazole-2-carboxamide], the IC50 in experiment [2] turned out to be 14 nM; in experiment [4] (Conditions B or C), 7 nM. In addition, the “RORγt (FL) Reporter Assay B or C, % inhibition (value marked **)” value in experiment [4] (Conditions B or C, marked **: footnote not shown) was 108** %.
As to `CC(C)Nc1cc(C(F)(F)F)c(-c2sc(C(=O)NCC(C)(C)O)nc2C(=O)N2CCC(F)CC2)cn1` [Example 12, 4-(4-Fluoropiperidine-1-carbonyl)-N-(2-hydroxy-2-methylpropyl)-5-(6-(isopropylamino)-4-(trifluoromethyl)pyridin-3-yl)thiazole-2-carboxamide], the “fold improvement in RORγt Thermofluor® binding assay activity” value in experiment [1] (compared to Comparator Example 3) is “over 800 fold”. Moreover, the Kd in experiment [1] was 63 nM. Moreover, the results for the IC50 in experiment [2] and in experiment [3] (HEK293T cells) were 190 nM and 850 nM, respectively. Further, in experiment [3] (Conditions A), the inhibition at 6 µM is 92%.
Consider `CC(=O)Nc1nc(C)c(S(=O)(=O)Nc2ccc(C(O)(C(F)(F)F)C(F)(F)F)cc2)s1` [SR1001], for which the Th17-dependent learned helplessness result in experiment [5] is reported as “reduced Th17-dependent learned helplessness”.
Take `CC(C)(O)CNC(=O)c1nc(C(=O)N2CCC(F)CC2)c(-c2cnc(NC3CC(F)(F)C3)c(C(F)(F)F)c2)s1` [Example 16, 5-(6-((3,3-Difluorocyclobutyl)amino)-5-(trifluoromethyl)pyridin-3-yl)-4-(4-fluoropiperidine-1-carbonyl)-N-(2-hydroxy-2-methylpropyl)thiazole-2-carboxamide]: the Kd in experiment [1] was found to be 130 nM. In addition, in experiment [3] (Conditions A), the IC50 turned out to be 470 nM and the inhibition at 6 µM is 105%.
For `CC(C)(O)CNC(=O)c1nc(C(=O)N2CCC(F)CC2)c(-c2cnc(NC3CCCCC3)cc2C#N)s1` [Example 57, 5-(4-Cyano-6-(cyclohexylamino)pyridin-3-yl)-4-(4-fluoropiperidine-1-carbonyl)-N-(2-hydroxy-2-methylpropyl)thiazole-2-carboxamide] the same measures were 79 nM, 78 nM and 106%.
As for `CC(C)(O)CNC(=O)c1nc(C(=O)N2CCC(F)CC2)c(-c2cnc(NC3CCCCC3)cc2C(F)(F)F)s1` [Example 3, 5-(6-(Cyclohexylamino)-4-(trifluoromethyl)pyridin-3-yl)-4-(4-fluoropiperidine-1-carbonyl)-N-(2-hydroxy-2-methylpropyl)thiazole-2-carboxamide], the Kd in experiment [1] stood at 9.6 nM. For the same molecule, the concentration for half-maximal inhibition (IC50) in experiment [2] was determined as 40 nM. In experiment [3] (Conditions A), the “RORγt (FL) Reporter Assay A, % inhibition (value marked **)” value is 106** % and the IC50 is 35 nM.
Regarding `CC(C)(O)CNC(=O)c1nc(C(=O)N2CCC(F)CC2)c(-c2cnc(NC3CCCCC3)c(C(F)(F)F)c2)s1` [Example 1, 5-(6-(Cyclohexylamino)-5-(trifluoromethyl)pyridin-3-yl)-4-(4-fluoropiperidine-1-carbonyl)-N-(2-hydroxy-2-methylpropyl)thiazole-2-carboxamide], in experiment [1], the Kd stood at 35 nM. In addition, in experiment [3] (Conditions A), the “RORγt (FL) Reporter Assay A, % inhibition (value marked **)” value is listed as 100** % and the IC50 was 79 nM.
For `CC(=O)N1CCN(Cc2ccc(-c3ccc(C(O)(C(F)(F)F)C(F)(F)F)cc3)cc2)CC1` [SR1555], in experiment [6], the body weight result is listed as “reduced”, the fat mass result is “significant reduction”, the food intake entry is “modest reduction” and the insulin sensitivity result is reported as “improved”.
As to `CC[C@H](Nc1cc(C(F)F)c(-c2sc(C(=O)NCC(C)(C)O)nc2C(=O)N2CCCC[C@@H]2C)cn1)C(F)(F)F` [Example 91, 5-(4-(Difluoromethyl)-6-(((S)-1,1,1-trifluorobutan-2-yl)amino)pyridin-3-yl)-N-(2-hydroxy-2-methylpropyl)-4-((S)-2-methylpiperidine-1-carbonyl)thiazole-2-carboxamide], the IC50 in experiment [2] was determined as 19 nM. Further, the “RORγt (FL) Reporter Assay B or C, % inhibition (value marked *)” value in experiment [4] (Conditions B or C, marked *: footnote not given) is listed as 96* %.
